Experimental data taken from publication PMC2095803 (Nucleic Acids Research, 2007).
Positions count from the first letter of the chain named.

What was measured:
Bst DNA polymerase [1] = biological target: T1, Bst DNA polymerase (Geobacillus stearothermophilus, UniProt P52026); experiment: PEP termination assay; type: biochemical, Bacillus stearothermophilus
T1 sequence (P52026 289-876 limits assumed): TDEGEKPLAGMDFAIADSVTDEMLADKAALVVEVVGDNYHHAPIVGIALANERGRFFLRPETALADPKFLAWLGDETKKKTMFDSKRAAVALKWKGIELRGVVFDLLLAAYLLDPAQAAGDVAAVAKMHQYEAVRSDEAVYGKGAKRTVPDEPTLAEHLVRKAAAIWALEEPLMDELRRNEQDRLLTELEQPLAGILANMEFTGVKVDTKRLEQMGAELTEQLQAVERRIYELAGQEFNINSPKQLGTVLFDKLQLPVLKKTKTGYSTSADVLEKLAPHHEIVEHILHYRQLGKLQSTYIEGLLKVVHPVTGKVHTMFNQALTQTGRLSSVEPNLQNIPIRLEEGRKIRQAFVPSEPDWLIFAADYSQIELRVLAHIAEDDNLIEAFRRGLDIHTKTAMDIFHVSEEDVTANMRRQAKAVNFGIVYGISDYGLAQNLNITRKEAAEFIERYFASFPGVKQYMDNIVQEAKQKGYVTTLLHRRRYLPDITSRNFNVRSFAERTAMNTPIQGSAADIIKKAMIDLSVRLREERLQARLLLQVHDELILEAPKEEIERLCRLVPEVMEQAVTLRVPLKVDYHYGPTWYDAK

[2] = biological target: Klenow(exo−) DNA polymerase (Escherichia coli, UniProt P00582, D355A/E357A); experiment: PEP termination assay; type: biochemical
Taq DNA polymerase = Taq DNA polymerase (Thermus aquaticus, UniProt P19821); experiment: PEP termination assay; type: biochemical, Thermus aquaticus YT-1
[3] = biological target: AmpliTaqFS DNA polymerase (Thermus aquaticus, UniProt P19821, F667Y/G46D); experiment: PEP termination assay; type: biochemical, Thermus aquaticus YT-1
[4] = biological target: T2, Therminator DNA polymerase (Thermococcus sp., UniProt Q56366, A485L/D141A/E143A); experiment: PEP termination assay; type: biochemical, Thermococcus species 9ºN-7
T2 sequence (Q56366 1-775 D141A/E143A/A485L): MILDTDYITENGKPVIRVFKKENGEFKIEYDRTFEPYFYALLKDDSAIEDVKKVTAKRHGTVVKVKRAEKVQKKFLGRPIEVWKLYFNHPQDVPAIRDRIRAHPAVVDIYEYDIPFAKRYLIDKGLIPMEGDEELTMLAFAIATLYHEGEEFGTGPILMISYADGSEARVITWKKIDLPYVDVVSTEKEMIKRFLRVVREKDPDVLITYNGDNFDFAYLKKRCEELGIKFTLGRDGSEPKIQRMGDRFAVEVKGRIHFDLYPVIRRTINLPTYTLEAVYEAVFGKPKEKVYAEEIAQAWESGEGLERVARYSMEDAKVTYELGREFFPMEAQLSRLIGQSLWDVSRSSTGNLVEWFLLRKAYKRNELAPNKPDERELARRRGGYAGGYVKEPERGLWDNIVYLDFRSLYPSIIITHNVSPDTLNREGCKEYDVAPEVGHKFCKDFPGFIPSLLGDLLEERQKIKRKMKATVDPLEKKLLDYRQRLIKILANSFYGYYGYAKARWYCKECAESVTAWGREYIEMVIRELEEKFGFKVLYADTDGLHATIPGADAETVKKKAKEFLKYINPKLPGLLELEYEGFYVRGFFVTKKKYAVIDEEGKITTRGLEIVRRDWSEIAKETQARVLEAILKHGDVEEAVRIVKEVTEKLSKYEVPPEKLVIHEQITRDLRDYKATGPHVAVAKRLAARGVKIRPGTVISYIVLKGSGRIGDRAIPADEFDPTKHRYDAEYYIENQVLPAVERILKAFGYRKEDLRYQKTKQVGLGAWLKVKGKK

[5] = biological target: T3, Therminator II DNA polymerase (Thermococcus sp., UniProt Q56366, A485L/D141A/E143A/Y409V); experiment: PEP termination assay; type: biochemical, Thermococcus species 9ºN-7
T3 sequence (Q56366 1-775 D141A/E143A/Y409V/A485L): T2 sequence (Q56366 1-775 D141A/E143A/A485L) with Y409V

Bst DNA polymerase [6] = biological target: T1, Bst DNA polymerase; experiment: Oligonucleotide template assay; type: biochemical, Bacillus stearothermophilus; conditions: Bst; final concentration of 200 nM
[7] = Klenow(exo−), 25× IC50, oligoTemplate-3

Sequence of Taq DNA polymerase (P19821 whole entry): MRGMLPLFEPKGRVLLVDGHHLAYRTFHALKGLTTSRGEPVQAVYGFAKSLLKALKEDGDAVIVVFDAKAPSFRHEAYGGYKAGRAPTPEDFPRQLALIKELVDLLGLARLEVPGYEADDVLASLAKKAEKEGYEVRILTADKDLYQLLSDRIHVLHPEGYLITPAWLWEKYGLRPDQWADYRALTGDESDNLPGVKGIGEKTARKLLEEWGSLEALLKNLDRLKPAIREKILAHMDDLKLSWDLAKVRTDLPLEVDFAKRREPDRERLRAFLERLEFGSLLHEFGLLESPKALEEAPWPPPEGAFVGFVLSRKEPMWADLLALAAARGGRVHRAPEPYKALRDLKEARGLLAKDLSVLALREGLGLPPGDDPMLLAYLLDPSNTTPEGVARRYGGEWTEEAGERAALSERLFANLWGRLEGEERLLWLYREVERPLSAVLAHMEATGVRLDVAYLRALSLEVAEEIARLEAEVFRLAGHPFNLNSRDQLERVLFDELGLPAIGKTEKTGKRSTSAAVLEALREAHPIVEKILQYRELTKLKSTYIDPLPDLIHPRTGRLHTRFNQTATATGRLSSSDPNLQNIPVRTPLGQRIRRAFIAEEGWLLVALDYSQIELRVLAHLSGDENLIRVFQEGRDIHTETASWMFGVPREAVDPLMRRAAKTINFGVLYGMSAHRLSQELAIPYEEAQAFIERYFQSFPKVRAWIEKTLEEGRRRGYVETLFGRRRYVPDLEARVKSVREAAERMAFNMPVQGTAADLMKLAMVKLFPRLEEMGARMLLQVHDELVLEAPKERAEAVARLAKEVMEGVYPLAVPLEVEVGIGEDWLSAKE
Sequence of AmpliTaqFS DNA polymerase (P19821 whole entry G46D/F667Y): as the sequence (P19821 whole entry) above, with G46D, F667Y counted along it

O=[N+]([O-])c1ccccc1CNc1ncnc2c1ncn2[C@H]1C[C@H](O)[C@@H](COP(=O)(O)OP(=O)(O)OP(=O)(O)O)O1 [Compound IIIc, N^6-(2-Nitrobenzyl)-2’-deoxyadenosine-5’-triphosphate]
IC50 (Bst DNA polymerase [1]): 10 nM
% 1st Base (Bst DNA polymerase [1]; Bst, 25× IC50, oligoTemplate-3): 99.1 ± 0.3%
% 2nd Base (Bst DNA polymerase [1]; Bst, 25× IC50, oligoTemplate-3): <0.1%
% Primer (Bst DNA polymerase [1]; Bst, 25× IC50, oligoTemplate-3): 0.9 ± 0.3%
Extension / termination of DNA synthesis on 10-thymidine template (Bst DNA polymerase [1]; Bst, at 25× its IC50 value): efficiently incorporated and terminated Bst DNA synthesis at the first-base position
IC50 [2]: 4.3 nM
% 1st Base [2, 7]: 76.1 ± 1.8%
% 2nd Base [2, 7]: 6.2 ± 0.5%
% Primer [2, 7]: 17.7 ± 2.2%
IC50 (Taq DNA polymerase): 300 nM
% 1st Base (Taq DNA polymerase; Taq, 25× IC50, oligoTemplate-3): 98.7 ± 0.4%
% 2nd Base (Taq DNA polymerase; Taq, 25× IC50, oligoTemplate-3): <0.1%
% Primer (Taq DNA polymerase; Taq, 25× IC50, oligoTemplate-3): 1.3 ± 0.4%
IC50 [3]: 350 nM
IC50 [4]: 1.8 nM
IC50 [5]: 30 nM
Incorporation / termination of DNA synthesis (Bst DNA polymerase [6]): efficient, base-specific termination of DNA synthesis
